Measurements from the NIST ThermoML archive (doi:10.1021/acs.jced.7b00788).

Experiments:
[1] = 100 kPa, Liquid; for viscosity: Concentric cylinders viscometry; for mass density: Vibrating tube method
[2] = xn = mol fraction of the nth substance listed; settings: 100 kPa, Liquid, x1 = 1; for viscosity: Concentric cylinders viscometry; for mass density: Vibrating tube method

CCOP(=O)([O-])OCC.CCn1cc[n+](C)c1 [1-ethyl-3-methylimidazolium diethyl phosphate]
[1]
Settings | mass density [kg/m3] | viscosity [mPa·s]
293.15 K | 1151.2 | 540
303.15 K | 1144.2 | 274
313.15 K | 1137.4 | 154
323.15 K | 1130.7 | 94
333.15 K | 1124.1 | 61.2
343.15 K | 1117.5 | 42.1
353.15 K | 1111 | 30.2
363.15 K | 1104.5 | 22.5
373.15 K | 1098.2 | 17.3

C[S+](C)[O-] [dimethyl sulfoxide]
[1]
Settings | mass density [kg/m3] | viscosity [mPa·s]
293.15 K | 1101.2 | 2.31
303.15 K | 1091.2 | 1.89
313.15 K | 1081.1 | 1.57
323.15 K | 1071.1 | 1.33
333.15 K | 1061.2 | 1.15
343.15 K | 1051.3 | 1.01
353.15 K | 1041.1 | 0.893
363.15 K | 1031.3 | 0.799
373.15 K | 1021.4 | 0.721

O [water]
[1]
Settings | mass density [kg/m3] | viscosity [mPa·s]
293.15 K | 1000.1 | 1
303.15 K | 998 | 0.805
313.15 K | 994.3 | 0.651
323.15 K | – | 0.544
333.15 K | 985.2 | 0.472
343.15 K | 979.6 | 0.417
353.15 K | 973.3 | 0.342

O [water] + CCOP(=O)([O-])OCC.CCn1cc[n+](C)c1
[2]
Settings | mass density [kg/m3] | viscosity [mPa·s]
293.15 K | 1000.1 | 1
303.15 K | 998 | 0.805
313.15 K | 994.3 | 0.651
323.15 K | – | 0.544
333.15 K | 985.2 | 0.472
343.15 K | 979.6 | 0.417
353.15 K | 973.3 | 0.342
